The nature of series [1]: Assay for oral absorbability: plasma drug concentration after oral administration. Type of series: in vivo. The settings on record: overnight fasted male SD rats, 3 mg/kg. As to the method:
Assay for Oral Absorbability
1) Preparation of the Samples for Measurement of the Drug Concentration After Oral Administration
As experimental animal, overnight fasted SD rats (Charles River, male, 7 weeks of age, 170-210 g) were used. Three mg of a test compound was dissolved by adding 0.2 mL of N,N-dimethylacetoamide, 9.794 mL of 0.5% aqueous methylcellulose solution and 0.006 mL of 2N NaOH, and then 0.3 mg/mL solution was prepared. The body weights of rats were measured, and the solution of the test compound was administered orally at the dose of 10 mL/kg (3 mg/kg). The oral administration was performed with gastric tube for rat and 2.5 mL syringe. The sampling times for collection of blood were 15, 30, 60, 120, 240 and 360 minutes after the oral administration. The blood was centrifuged, and the plasma was used as the sample for measurement of the drug concentration in blood.
2) Measurement of the Drug Concentration
To 0.025 mL of the plasma obtained in 1) described above, 0.1 mL of an adequate internal standard material was added according to the usual method, and then deproteinization was performed by adding 0.875 mL of acetonitrile. After centrifugation, 0.005 mL of the supernatant was injected into LC-MS/MS. The drug concentration in plasma was measured by LC-MS/MS method under the conditions as follows. […]

The target in the next series is T1, human GnRHR1 (Homo sapiens, UniProt P30968).
T1 construct: expressed in transfected cells
T1 sequence (P30968 1-328): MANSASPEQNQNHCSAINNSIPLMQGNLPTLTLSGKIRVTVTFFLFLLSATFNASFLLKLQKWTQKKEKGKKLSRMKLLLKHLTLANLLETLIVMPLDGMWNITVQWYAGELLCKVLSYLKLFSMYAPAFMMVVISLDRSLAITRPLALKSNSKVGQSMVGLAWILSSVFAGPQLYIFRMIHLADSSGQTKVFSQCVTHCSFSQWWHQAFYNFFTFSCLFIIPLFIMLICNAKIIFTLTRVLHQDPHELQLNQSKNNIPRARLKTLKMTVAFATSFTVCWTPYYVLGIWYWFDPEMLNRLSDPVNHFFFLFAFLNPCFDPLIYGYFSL
The series is described as follows: Inhibitory effect for the change of calcium levels in GnRH-stimulated cells (hGnRHR1#1 HEK293 cells). Type of series: cell-based. The conditions noted are these: HEK293 cells stably expressing human GnRHR1; 10 nM GnRH added; FLIPR Calcium Assay Kit; read-out: IC50 (drug concentration at which 50% GnRH-stimulated intracellular calcium flux was inhibited). The text has this:
1) Cloning and Construction of the Vector Expressing Human GnRH Receptor1 (GnRHR1)
Using cDNA derived from human pituitary (BECTON DICKINSON) as a template, the DNA fragment coding 45 to 1115 by of human GnRHR1 (Accession No. L03380), which was reported by Kakar et al., was amplified by PCR method and inserted into the multi-cloning site of pcDNA3.1(+) (Invitrogen). The DNA sequence inserted was perfectly matched to the previously reported sequence.
2) Establishment of Cell Line Stably Expressing Human GnRH Receptor1 HEK293 Cells
The expression vector of human GnRHR1 gene, was digested by XhoI into a linear DNA. The linear DNA was transfected into HEK293 cells by means of lipofection (Lipofectamine2000: Invitrogen). Neomycin resistant cell lines were selected by culture in the medium containing G418 (Invitrogen) at 1 mg/mL, and then the change of calcium levels in GnRH-stimulated cells was measured by the method described below.
3) Assay of Inhibitory Effect for the Change of Calcium Levels in GnRH-Stimulated Cells
Antagonizing effect of compounds for human GnRHR1 was evaluated by depression of calcium levels in GnRH-stimulated cells. hGnRHR1#1 cells were seeded into a 96-well culture plate at a density of 1.5×10^5 cells/well and cultured for a day. […] Then, intracellular calcium levels were determined under the following condition by using FLEX STATION (Molecular Devices). […]
A general note: A change in cytosolic calcium serves as a functional read-out for many receptors and channels.

SMILES strings stand for the structures.

In series [1] (360 minutes), `COC(=O)N(C)CCOc1ccc(F)c(F)c1COc1ccc(F)c(-n2c(=O)[nH]c3csc(C(=O)O)c3c2=O)c1` [Example 8] came in with a C360 (plasma drug concentration at 360 minutes after administration) of 490 ng/mL. Further, the Cmax in series [1] (rat, read-out: Cmax (maximum plasma drug concentration)) amounted to 2380 ng/mL. Further, at human GnRHR1, the IC50 came out at 91 nM.
